# Legend:
# Format in all cases: in vivo
# [1] = tested on: giant foxtail (Setaria faberii); experiment: Test A preemergence; details: for Foxtail, Giant plant response rating (0 to 100 scale, 0 is no effect, 100 is complete control): visual injury approx. 10 d
# Summary of the method: (§1)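 Each rating is a visual injury score from 0 to 100 given about 10 d after treatment, judged against untreated controls kept alongside in the greenhouse. In loam soil–sand blend, seeds got a preemergence directed soil spray, while postemergence plants were 2 to 10 cm tall at spraying.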
# [2] = tested on: pigweed (Amaranthus retroflexus); experiment: Test A preemergence; details: for Pigweed plant response rating (0 to 100 scale, 0 is no effect, 100 is complete control): visual injury approx. 10 d
# [3] = tested on: ragweed (common ragweed, Ambrosia elatior); experiment: Test A preemergence; details: for Ragweed plant response rating (0 to 100 scale, 0 is no effect, 100 is complete control): visual injury approx. 10 d
# Summary of the method: as §1
# [4] = tested on: barnyardgrass (Echinochloa crus-galli); experiment: Test A preemergence; details: for Barnyardgrass plant response rating (0 to 100 scale, 0 is no effect, 100 is complete control): visual injury approx. 10 d
# Summary of the method: as §1
# [5] = tested on: ryegrass, Italian (Italian ryegrass, Lolium multiflorum); experiment: Test A preemergence; details: for Ryegrass, Italian plant response rating (0 to 100 scale, 0 is no effect, 100 is complete control): visual injury approx. 10 d
# Summary of the method: as §1
# Kochia (Kochia scoparia) [6] = experiment: Test A preemergence; details: for Kochia plant response rating (0 to 100 scale, 0 is no effect, 100 is complete control): visual injury approx. 10 d
# Summary of the method: as §1
# corn (Zea mays) = experiment: Test A postemergence; details: for Corn plant response rating: visual injury rating on 0 to 100 scale (0 no effect, 100 complete control)
# Summary of the method: as §1
# [7] = tested on: giant foxtail (Setaria faberii); experiment: Test A postemergence; details: for Foxtail, Giant plant response rating: visual injury rating on 0 to 100 scale (0 no effect, 100 complete control)
# Summary of the method: as §1
# [8] = tested on: pigweed (Amaranthus retroflexus); experiment: Test A postemergence; details: for Pigweed plant response rating: visual injury rating on 0 to 100 scale (0 no effect, 100 complete control)
# Summary of the method: as §1
# [9] = tested on: Galium (catchweed bedstraw, Galium aparine); experiment: Test A postemergence; details: for Galium plant response rating: visual injury rating on 0 to 100 scale (0 no effect, 100 complete control)
# Summary of the method: as §1
# [10] = tested on: ragweed (common ragweed, Ambrosia elatior); experiment: Test A postemergence; details: for Ragweed plant response rating: visual injury rating on 0 to 100 scale (0 no effect, 100 complete control)
# Summary of the method: as §1
# [11] = tested on: barnyardgrass (Echinochloa crus-galli); experiment: Test A postemergence; details: for Barnyardgrass plant response rating: visual injury rating on 0 to 100 scale (0 no effect, 100 complete control)
# Summary of the method: as §1
# [12] = tested on: ryegrass, Italian (Italian ryegrass, Lolium multiflorum); experiment: Test A postemergence; details: for Ryegrass, Italian plant response rating: visual injury rating on 0 to 100 scale (0 no effect, 100 complete control)
# Summary of the method: as §1
# Kochia (Kochia scoparia) [13] = experiment: Test A postemergence; details: for Kochia plant response rating: visual injury rating on 0 to 100 scale (0 no effect, 100 complete control)
# Summary of the method: as §1
# [14] = tested on: wheat (Triticum aestivum); experiment: Test A postemergence; details: for Wheat plant response rating: visual injury rating on 0 to 100 scale (0 no effect, 100 complete control)
# Summary of the method: as §1
# [15] = tested on: blackgrass (Alopecurus myosuroides); experiment: Test A postemergence; details: for Blackgrass plant response rating: visual injury rating on 0 to 100 scale (0 no effect, 100 complete control)
# Summary of the method: as §1
# [16] = tested on: ducksalad (Heteranthera limosa); experiment: Test B flooded paddy test; details: Flood, 0 to 100 scale where 0 is no effect and 100 is complete control, 13 to 15 d
# Summary of the method: (§2)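 Rating scale 0–100 (visual, vs untreated controls) after a 13–15 d greenhouse period; application to the flood layer, 3 cm above soil and maintained; plants at 2-leaf stage when treated.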
# rice (Oryra sativa) = experiment: Test B flooded paddy test; details: Flood, 0 to 100 scale where 0 is no effect and 100 is complete control, 13 to 15 d
# Summary of the method: as §2
# [17] = tested on: sedge, umbrella (small-flower umbrella sedge, Cyperus difformis); experiment: Test B flooded paddy test; details: Flood, 0 to 100 scale where 0 is no effect and 100 is complete control, 13 to 15 d
# Summary of the method: as §2
# [18] = tested on: barnyardgrass (Echinochloa crus-galli); experiment: Test B flooded paddy test; details: Flood, 0 to 100 scale where 0 is no effect and 100 is complete control, 13 to 15 d
# Summary of the method: as §2
# [19] = 125 g ai/ha, preemergence, 0 to 100 scale (0 no effect, 100 complete control)
# [20] = 125 g ai/ha, postemergence, approx. 10 d
# [21] = 500 g ai/ha, postemergence, 0 to 100 scale, 0 no effect, 100 complete control
# [22] = 125 g ai/ha, preemergence, visual rating after approx. 10 d, 0 to 100 scale where 0 is no effect and 100 is complete control
# [23] = 500 g ai/ha, preemergence, 0 to 100 scale, 0 = no effect, 100 = complete control
# [24] = 125 g ai/ha, postemergence, visual injury after approximately 10 d, 0 to 100 scale (0 no effect, 100 complete control)
# [25] = 500 g ai/ha, postemergence, visual injury, 0 to 100 scale (0 no effect, 100 complete control), approx. 10 d
# [26] = 125 g ai/ha, Preemergence, visual injury after approximately 10 d, 0 to 100 scale where 0 is no effect and 100 is complete control
# [27] = Postemergence, 500 g ai/ha, 0 to 100 scale where 0 is no effect and 100 is complete control
smiles,measurement,setting,value
CN1CC(c2ccc3c(c2)OC(F)(F)O3)C(C(=O)Nc2ccccc2S(C)(=O)=O)C1=O (stereo not drawn) [Compound 443],"Plant response rating, Foxtail, Giant",[1]; [19],90
same,"Foxtail, Giant plant response rating (0 to 100 scale, 0 is no effect, 100 is complete control)","[1]; Preemergence, 500 g ai/ha",90
same,"Plant response rating, Pigweed",[2]; [19],80
same,"Pigweed plant response rating (0 to 100 scale, 0 is no effect, 100 is complete control)","[2]; Preemergence, 500 g ai/ha",90
same,"Plant response rating, Ragweed",[3]; [19],80
same,"Ragweed plant response rating (0 to 100 scale, 0 is no effect, 100 is complete control)","[3]; Preemergence, 500 g ai/ha",80
same,"Plant response rating, Barnyardgrass",[4]; [19],90
same,"Barnyardgrass plant response rating (0 to 100 scale, 0 is no effect, 100 is complete control)","[4]; Preemergence, 500 g ai/ha",90
same,"Plant response rating, Ryegrass, Italian",[5]; [19],40
same,"Ryegrass, Italian plant response rating (0 to 100 scale, 0 is no effect, 100 is complete control)","[5]; Preemergence, 500 g ai/ha",50
same,"Plant response rating, Kochia",Kochia (Kochia scoparia) [6]; [19],30
same,"Kochia plant response rating (0 to 100 scale, 0 is no effect, 100 is complete control)","Kochia (Kochia scoparia) [6]; Preemergence, 500 g ai/ha",80
same,Corn plant response rating,corn (Zea mays); [20],40
same,"Plant response rating, Corn",corn (Zea mays); [21],80
same,"Foxtail, Giant plant response rating",[7]; [20],80
same,"Plant response rating, Foxtail, Giant",[7]; [21],80
same,Pigweed plant response rating,[8]; [20],20
same,"Plant response rating, Pigweed",[8]; [21],50
same,Galium plant response rating,[9]; [20],40
same,"Plant response rating, Galium",[9]; [21],50
same,Ragweed plant response rating,[10]; [20],20
same,"Plant response rating, Ragweed",[10]; [21],20
same,Barnyardgrass plant response rating,[11]; [20],80
same,"Plant response rating, Barnyardgrass",[11]; [21],80
same,"Ryegrass, Italian plant response rating",[12]; [20],30
same,"Plant response rating, Ryegrass, Italian",[12]; [21],60
same,Kochia plant response rating,Kochia (Kochia scoparia) [13]; [20],20
same,"Plant response rating, Kochia",Kochia (Kochia scoparia) [13]; [21],30
same,Wheat plant response rating,[14]; [20],40
same,"Plant response rating, Wheat",[14]; [21],60
same,Blackgrass plant response rating,[15]; [20],60
same,"Plant response rating, Blackgrass",[15]; [21],70
same,"Plant response rating, Ducksalad",[16]; 250 g ai/ha,80
same,"Plant response rating, Rice",rice (Oryra sativa); 250 g ai/ha,0
same,"Plant response rating, Sedge, Umbrella",[17]; 250 g ai/ha,0
same,"Plant response rating, Barnyardgrass",[18]; 250 g ai/ha,70
O=C1NCC(c2cccc3ccccc23)C1C(=O)Nc1cccc(F)c1F (racemic) [Compound 711],"Plant response rating, Foxtail, Giant",[1]; [22],0
same,"Plant response rating, Foxtail, Giant",[1]; [23],0
same,"Plant response rating, Pigweed",[2]; [22],0
same,"Plant response rating, Pigweed",[2]; [23],0
same,"Plant response rating, Ragweed",[3]; [22],0
same,"Plant response rating, Ragweed",[3]; [23],0
same,"Plant response rating, Barnyardgrass",[4]; [22],0
same,"Plant response rating, Barnyardgrass",[4]; [23],0
same,"Plant response rating, Ryegrass, Italian",[5]; [22],0
same,"Plant response rating, Ryegrass, Italian",[5]; [23],0
same,"Plant response rating, Kochia",Kochia (Kochia scoparia) [6]; [22],0
same,"Plant response rating, Kochia",Kochia (Kochia scoparia) [6]; [23],0
same,"Plant response rating, Corn",corn (Zea mays); [24],0
same,"Plant response rating, Corn",corn (Zea mays); [25],0
same,"Plant response rating, Foxtail, Giant",[7]; [24],0
same,"Plant response rating, Foxtail, Giant",[7]; [25],0
same,"Plant response rating, Pigweed",[8]; [24],0
same,"Plant response rating, Pigweed",[8]; [25],0
same,"Plant response rating, Galium",[9]; [24],0
same,"Plant response rating, Galium",[9]; [25],0
same,"Plant response rating, Ragweed",[10]; [24],0
same,"Plant response rating, Ragweed",[10]; [25],0
same,"Plant response rating, Barnyardgrass",[11]; [24],0
same,"Plant response rating, Barnyardgrass",[11]; [25],0
same,"Plant response rating, Ryegrass, Italian",[12]; [24],0
same,"Plant response rating, Ryegrass, Italian",[12]; [25],0
same,"Plant response rating, Kochia",Kochia (Kochia scoparia) [13]; [24],0
same,"Plant response rating, Kochia",Kochia (Kochia scoparia) [13]; [25],0
same,"Plant response rating, Wheat",[14]; [24],0
same,"Plant response rating, Wheat",[14]; [25],0
same,"Plant response rating, Blackgrass",[15]; [24],0
same,"Plant response rating, Blackgrass",[15]; [25],0
same,"Plant response rating, Ducksalad",[16]; 500 g ai/ha,60
same,"Plant response rating, Rice",rice (Oryra sativa); 500 g ai/ha,0
same,"Plant response rating, Sedge, Umbrella",[17]; 500 g ai/ha,0
same,"Plant response rating, Barnyardgrass",[18]; 500 g ai/ha,0
O=C1NCC(c2ccc(C(F)(F)F)c(F)c2)C1C(=O)Nc1cccc(F)c1F (racemic) [Compound 504],"Plant response rating, Foxtail, Giant",[1]; [26],90
same,"Foxtail, Giant plant response rating (0 to 100 scale, 0 is no effect, 100 is complete control)","[1]; Preemergence, 500 g ai/ha",90
same,"Plant response rating, Pigweed",[2]; [26],80
same,"Pigweed plant response rating (0 to 100 scale, 0 is no effect, 100 is complete control)","[2]; Preemergence, 500 g ai/ha",100
same,"Plant response rating, Ragweed",[3]; [26],40
same,"Ragweed plant response rating (0 to 100 scale, 0 is no effect, 100 is complete control)","[3]; Preemergence, 500 g ai/ha",50
same,"Plant response rating, Barnyardgrass",[4]; [26],90
same,"Barnyardgrass plant response rating (0 to 100 scale, 0 is no effect, 100 is complete control)","[4]; Preemergence, 500 g ai/ha",90
same,"Plant response rating, Ryegrass, Italian",[5]; [26],40
same,"Ryegrass, Italian plant response rating (0 to 100 scale, 0 is no effect, 100 is complete control)","[5]; Preemergence, 500 g ai/ha",70
same,"Plant response rating, Kochia",Kochia (Kochia scoparia) [6]; [26],80
same,"Kochia plant response rating (0 to 100 scale, 0 is no effect, 100 is complete control)","Kochia (Kochia scoparia) [6]; Preemergence, 500 g ai/ha",80
same,Corn plant response rating,corn (Zea mays); [20],70
same,"Plant response rating, Corn",corn (Zea mays); [27],70
same,"Foxtail, Giant plant response rating",[7]; [20],90
same,"Plant response rating, Foxtail, Giant",[7]; [27],90
same,Pigweed plant response rating,[8]; [20],60
same,"Plant response rating, Pigweed",[8]; [27],70
same,Galium plant response rating,[9]; [20],70
same,"Plant response rating, Galium",[9]; [27],70
same,Ragweed plant response rating,[10]; [20],30
same,"Plant response rating, Ragweed",[10]; [27],40
same,Barnyardgrass plant response rating,[11]; [20],80
same,"Plant response rating, Barnyardgrass",[11]; [27],90
same,"Ryegrass, Italian plant response rating",[12]; [20],40
same,"Plant response rating, Ryegrass, Italian",[12]; [27],40
same,Kochia plant response rating,Kochia (Kochia scoparia) [13]; [20],30
same,"Plant response rating, Kochia",Kochia (Kochia scoparia) [13]; [27],60
same,Wheat plant response rating,[14]; [20],20
same,"Plant response rating, Wheat",[14]; [27],60
same,Blackgrass plant response rating,[15]; [20],40
same,"Plant response rating, Blackgrass",[15]; [27],60
same,"Plant response rating, Ducksalad",[16]; 250 g ai/ha,80
same,"Plant response rating, Rice",rice (Oryra sativa); 250 g ai/ha,0
same,"Plant response rating, Sedge, Umbrella",[17]; 250 g ai/ha,0
same,"Plant response rating, Barnyardgrass",[18]; 250 g ai/ha,40

# Reference: US12077503B2, “Substituted cyclic amides and their use as herbicides” (FMC CORPORATION, priority 2015, dated 2024)
